Experimental data published in patent US11753399B2, “Therapeutic compounds” (Gilead Sciences, Inc., priority 2018, dated 2023).

Columns and labels:
HIV-IIIb = assay: Test A: Antiviral Assay in MT4 Cells; type: cell-based, HIV-1; conditions: inhibition of virus-induced cell killing, MT-4 cells, HIV-IIIb, 5 days, values normalized to 100%; for inhibition at 0.01 µM / inhibition at 0.2 µM: Human immunodeficiency virus 1, MT4, 120 h; for inhibition at 0.01 µM: read-out: % inhibition at 0.01 μM; for inhibition at 0.2 µM: read-out: % inhibition at 0.20 μM
Experimental: (§1) MT-4 cells were next mixed with HIV-IIIb at a multiplicity of infection (m.o.i.) of 0.003 for 1 hour, after which time 35 μL of virus/cell mixture (2000 cells) was immediately added to each well containing 40 μL of diluted compound. The plates were then incubated at 37° C. for 5 days. After 5 days of incubation, 25 μl of 2× concentrated CellTiter-Glo Reagent (catalog #G7571, Promega Biosciences, Inc., Madison, Wis.) was added to each well containing MT-4 cells. Cell lysis was carried out by incubating at room temperature for 10 min and then chemiluminescence was read.

MT-4 cells = assay: Test B: Cytotoxicity Assay (same protocol as Test A, uninfected cells); type: cell-based; conditions: uninfected MT-4 cells, 5 days, CellTiter-Glo
Experimental: as §1, with “read. […] Compound cytotoxicity and the corresponding CC50 values was determined using the same protocol as described in the antiviral assay (Test A) except that uninfected cells were used.” for “read.”

[1] = as above; type: cell-based; conditions: human, uninfected MT-4 cells, CellTiter-Glo
Experimental: as §1, with “read. […] Compound cytotoxicity and the corresponding CC50 values was determined using the same protocol as described in the antiviral assay (Test A) except that uninfected cells were used.” for “read.”

[2] = from dose response curve at 0.01 μM (10 nM)
[3] = from dose response curve at 0.20 μM (200 nM)

Compound	inhibition at 0.01 µM (HIV-IIIb; [2])	inhibition at 0.2 µM (HIV-IIIb; [3])	CC50 (MT-4 cells)	% inhibition at 0.01 μM (HIV-IIIb; [2])	% inhibition at 0.20 μM (HIV-IIIb; [3])	CC50 at 5 days [1]
CC(C)(O)c1nnc(Nc2nn(CC(F)F)c3c(-c4ccc(C#CC(C)(C)S(=O)(=O)C5CC5)nc4[C@H](Cc4cc(F)cc(F)c4)NC(=O)Cn4nc(C(F)F)c5c4C(F)(F)[C@@H]4C[C@H]54)ccc(Cl)c23)o1 [Example 24]	100%	100%	9.07 µM	–	–	–
CC(C)(O)c1nnc(Nc2nn(CC(F)F)c3c(-c4ccc(C#CC(C)(C)S(=O)(=O)C5CC5)nc4[C@H](Cc4cc(F)cc(F)c4)NC(=O)Cn4nc(C(F)F)c5c4C(F)(F)[C@@H]4C[C@H]54)ccc(Cl)c23)o1 [Example 25]	–	–	> 57.1 µM	100%	100%	–
CC(C)(C#Cc1ccc(-c2cccc3c(NS(=O)(=O)C4CC4)nn(CC(F)F)c23)c([C@H](Cc2cc(F)cc(F)c2)NC(=O)Cn2nc(C(F)F)c3c2C(F)(F)[C@@H]2C[C@H]32)n1)S(=O)(=O)C1CC1 [Example 52]	93%	93%	–	–	–	> 57.1 µM
Cn1nc(NS(C)(=O)=O)c2c(Cl)ccc(-c3ccc(C#CC(C)(C)S(=O)(=O)C4CC4)nc3[C@H](Cc3cc(F)cc(F)c3)NC(=O)Cc3nc4ccccc4[nH]3)c21 [Example 54]	18%	99%	–	–	–	29.8 µM
Cn1nc(NS(C)(=O)=O)c2c(Cl)ccc(-c3ccc(C#CC(C)(C)S(=O)(=O)C4CC4)nc3[C@H](Cc3cc(F)cc(F)c3)NC(=O)c3ccn[nH]3)c21 [Example 55]	86%	96%	–	–	–	22.2 µM
Cn1nc(NS(C)(=O)=O)c2c(Cl)ccc(-c3ccc(C#CC(C)(C)S(=O)(=O)C4CC4)nc3[C@H](Cc3cc(F)cc(F)c3)NC(=O)Cn3nc(C(F)F)c(Cl)c3C(F)F)c21 [Example 56]	0%	91%	–	–	–	23.5 µM
CC(C)(C#Cc1ccc(-c2ccc(F)c3c(NS(=O)(=O)C4CC4)nn(CC(F)F)c23)c([C@H](Cc2cc(F)cc(F)c2)NC(=O)Cn2nc(C(F)(F)F)c3c2C(F)(F)[C@@H]2C[C@H]32)n1)S(=O)(=O)C1CC1 [Example 57]	59%	91%	–	–	–	> 57.1 µM
Cn1nc(NS(C)(=O)=O)c2c(Cl)ccc(-c3ccc(C#CC(C)(C)S(=O)(=O)C4CC4)nc3[C@H](Cc3cc(F)cc(F)c3)NC(=O)Cn3nc(C(F)F)c(Br)c3C(F)F)c21 [Example 58]	95%	95%	–	–	–	> 57.1 µM
Cn1nc(NS(C)(=O)=O)c2c(Cl)ccc(-c3ccc(C#CC(C)(C)S(=O)(=O)C4CC4)nc3[C@H](Cc3cc(F)cc(F)c3)NC(=O)Cn3nc(C(F)F)c(C4CC4)c3C(F)F)c21 [Example 59]	81%	93%	–	–	–	> 57.1 µM
Cn1nc(NS(C)(=O)=O)c2c(Cl)ccc(-c3ccc(C#CC(C)(C)S(=O)(=O)C4CC4)nc3[C@H](Cc3cc(F)cc(F)c3)NC(=O)CCn3cccn3)c21 [Example 60]	100%	100%	–	–	–	19.2 µM
Cn1nc(NS(C)(=O)=O)c2c(Cl)ccc(-c3ccc(C#CC(C)(C)S(=O)(=O)C4CC4)nc3[C@H](Cc3cc(F)cc(F)c3)NC(=O)Cn3ncc4ccccc43)c21 [Example 61]	3%	98%	–	–	–	28.4 µM
Cn1nc(NS(C)(=O)=O)c2c(Cl)ccc(-c3ccc(C#CC(C)(C)S(=O)(=O)C4CC4)nc3[C@H](Cc3cc(F)cc(F)c3)NC(=O)Cn3cnc4ccccc43)c21 [Example 62]	56%	93%	–	–	–	30.7 µM
Cn1nc(NS(C)(=O)=O)c2c(Cl)ccc(-c3ccc(C#CC(C)(C)S(=O)(=O)C4CC4)nc3[C@H](Cc3cc(F)cc(F)c3)NC(=O)Cn3nnc4ccccc43)c21 [Example 63]	1%	100%	–	–	–	21.8 µM
Cn1nc(NS(C)(=O)=O)c2c(Cl)ccc(-c3ccc(C#CC(C)(C)S(=O)(=O)C4CC4)nc3[C@H](Cc3cc(F)cc(F)c3)NC(=O)Cn3cc(C(F)(F)F)nc3C3CC3)c21 [Example 64]	45%	94%	–	–	–	> 50 µM
Cn1nc(NS(C)(=O)=O)c2c(Cl)ccc(-c3ccc(C#CC(C)(C)S(=O)(=O)C4CC4)nc3[C@H](Cc3cc(F)cc(F)c3)NC(=O)Cn3cc(C(F)(F)F)cn3)c21 [Example 65]	27%	100%	–	–	–	> 50 µM
Cn1nc(NS(C)(=O)=O)c2c(Cl)ccc(-c3ccc(C#CC(C)(C)S(=O)(=O)C4CC4)nc3[C@H](Cc3cc(F)cc(F)c3)NC(=O)Cc3ncc[nH]3)c21 [Example 66]	61%	97%	–	–	–	11.7 µM
CCS(=O)(=O)Nc1nn(CC(F)(F)F)c2c(-c3ccc(C#CC(C)(C)S(=O)(=O)C4CC4)nc3[C@H](Cc3cc(F)cc(F)c3)NC(=O)Cn3nc(C(F)(F)F)c4c3C(F)(F)[C@@H]3C[C@H]43)ccc(Cl)c12 [Example 67]	13%	0%	–	–	–	> 50 µM
CC(C)(C#Cc1ccc(-c2ccc(Cl)c3c(NS(C)(=O)=O)nn(CC(F)(F)F)c23)c([C@H](Cc2cc(F)cc(F)c2)NC(=O)Cn2nc(C(F)(F)F)c3c2C(F)(F)[C@@H]2C[C@H]32)n1)S(=O)(=O)C1CC1 [Example 68]	100%	100%	–	–	–	> 50 µM
CC(C)(C#Cc1ccc(-c2ccc(Cl)c3c(NS(=O)(=O)C4CC4)nn(C4COC4)c23)c([C@H](Cc2cc(F)cc(F)c2)NC(=O)Cn2nc(C(F)(F)F)c3c2C(F)(F)[C@@H]2C[C@H]32)n1)S(=O)(=O)C1CC1 [Example 69]	92%	92%	–	–	–	> 50 µM
